Assays:
[1] = target: T1, Type-1 angiotensin II receptor (Bos taurus, UniProt P25104); assay: Concentration required to inhibit [125I]AII binding to Angiotensin II receptor from membrane fractions of bovine adrenal cortex; assay type: tissue-based
T1 sequence (P25104 whole entry): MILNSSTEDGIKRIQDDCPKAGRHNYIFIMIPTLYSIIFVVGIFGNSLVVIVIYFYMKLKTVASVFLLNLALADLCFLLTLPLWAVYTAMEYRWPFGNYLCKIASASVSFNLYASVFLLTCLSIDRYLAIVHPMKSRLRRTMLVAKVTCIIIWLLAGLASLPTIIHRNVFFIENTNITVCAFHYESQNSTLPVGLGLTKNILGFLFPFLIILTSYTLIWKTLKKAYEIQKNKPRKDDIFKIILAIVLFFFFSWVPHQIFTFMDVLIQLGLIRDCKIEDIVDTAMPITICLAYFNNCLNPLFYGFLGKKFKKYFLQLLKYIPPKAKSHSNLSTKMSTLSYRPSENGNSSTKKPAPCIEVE

Oryctolagus cuniculus [2] = species on record: Oryctolagus cuniculus; assay: In vitro inhibition of contraction of rabbit aorta strips measured as pA2 calculated by the method of Van Rossum; assay type: functional; details: read-out: pA2 (converted)
Oryctolagus cuniculus [3] = species on record: Oryctolagus cuniculus; assay: In vitro inhibition of contraction of rabbit aorta strips measured as pD2 calculated by the method of Van Rossum; assay type: functional
Oryctolagus cuniculus [4] = species on record: Oryctolagus cuniculus; assay: Percent response at a dose of […] on AII induced contraction in isolated rabbit aorta, expressed as percent of maximal response; assay type: functional
Oryctolagus cuniculus [5] = species on record: Oryctolagus cuniculus; assay: Percent response at a dose of 9M on AII induced contraction in isolated rabbit aorta, expressed as percent of maximal response; assay type: functional
Rattus norvegicus = assay: Inhibitory effect at a dose of 1mg/gk, po on AII induced pressor response at a dose of 100ng/kg, iv in conscious normotensive rats; assay type: functional
Oryctolagus cuniculus [6] = species on record: Oryctolagus cuniculus; assay: Percent response at a dose of 8M on AII induced contraction in isolated rabbit aorta, expressed as percent of maximal response; assay type: functional

| IC50 [1] [µM] | Structure (SMILES) | Kb (Oryctolagus cuniculus [2]) [µM] | pD2 (Oryctolagus cuniculus [3]) | Response (Oryctolagus cuniculus [4]) [%] | Response (Oryctolagus cuniculus [5]) [%] | Inhibition (Rattus norvegicus) [%] | Response (Oryctolagus cuniculus [6]) [%] |
| --- | --- | --- | --- | --- | --- | --- | --- |
| 3.3 | CCCc1cn2nccc2n1Cc1ccc(-c2ccccc2-c2nn[nH]n2)cc1 | 0.0575 | – | – | – | – | – |
| 0.048 | CCCc1cn2ncc(C(=O)O)c2n1Cc1ccc(-c2ccccc2-c2nn[nH]n2)cc1 | – | 9.58 | – | – | – | – |
| 0.036 | CCCCc1nc2c(C)cnc(C(=O)O)c2n1Cc1ccc(-c2ccccc2-c2nn[nH]n2)cc1 | – | 9.16 | – | – | – | – |
| 0.054 | CCCCc1nc2c(C)cncc2n1Cc1ccc(-c2ccccc2-c2nnn[nH]2)cc1 | 0.012 | – | – | – | – | – |
| 0.5 | CCSc1nc2c(C)sc(C(=O)O)c2n1Cc1ccc(-c2ccccc2-c2nn[nH]n2)cc1 | – | 9.65 | 65 | 25 | 100 | – |
| 0.39 | CCOc1nc2ccccc2n1Cc1ccc(-c2ccccc2-c2nnn[nH]2)cc1 | 0.0117 | – | – | – | – | – |
| 1.2 | CCSc1nc2c(C)scc2n1Cc1ccc(-c2ccccc2-c2nn[nH]n2)cc1 | 0.0055 | – | – | 85 | 18 | 85 |
| – | CCOc1nc2cccc(C(=O)O)c2n1Cc1ccc(-c2ccccc2-c2nnn[nH]2)cc1 [CANDESARTAN] | – | 9.97 | – | – | – | – |

Source: ChEMBL document CHEMBL1150444, “A new class of diacidic nonpeptide angiotensin II receptor antagonists” (Bioorg Med Chem Lett, 1994)
